Source: US4069346A, “Compositions and methods for anesthetizing an animal using deuterated analogues of halothane and chloroform” (The Dow Chemical Company, priority 1977, dated 1978)

How the values were obtained:
[1] = system: liver; experiment: Relative hepatotoxicity of chloroform: serum glutamic-pyruvic transaminase (SGPT) level as indicator of liver damage after inhalation (Example 3); assay type: in vivo, male Fischer 344 rats; conditions: 0.36 percent (v/v); for SGPT level: inhaled two hours, blood collected after 24 hours, room air control 24.8 mμ/ml ± 2, groups of 10
Text: (§1) Appl. Pharmacol., 9, 139-151 (1966), which used the serum glutamic-pyruvic transaminase (SGPT) level as an indicator of liver damage.

[2] = system: male Fischer 344 rats; conditions: 0.36 percent (v/v), two hours
Description: Halothane and deuterated halothane were vaporized by metering the liquid compounds at a controlled rate into a temperature regulated vaporization flask held at 150° C. The vapor was swept into the air inlet of a 30 liter glass exposure chamber at a rate of 6 liters/minute. The concentration of the anesthetic in the exposure chamber was monitored by gas-liquid chromatography using direct gas sampling loops.
Using the same equipment to expose the animals as that of Example 2, three groups of 10 male Fischer 344 rats were exposed to room air, 0.36 percent (v/v) chloroform and 0.36 percent (v/v) deuterated chloroform for two hours. The animals were maintained two to a cage for 24 hours following the exposure. At the end of this period, the animals were decapitated and blood was collected in plastic centrifuge tubes and allowed to clot. The SGPT levels were determined using a commercially available method. SGPT concentrations of each group of animals were compared with the other groups by nonparametric analysis of variance.

[3] = system: liver; conditions: cited from earlier work; for damage to the liver: literature: Anesth. 45, 622 (1976) and 43, 392 (1975)
[4] = system: liver; experiment: SGPT as indication of liver toxicity after anesthesia with halothane and deuterated halothane (Example 4); assay type: in vivo, Fischer 344 rats; conditions: 1 percent (v/v) in air, two hours; for SGPT levels, comparison with the control: 24 hours; for SGPT: blood collected after 24 hours, control 18.8
Description: as §1
Using the same techniques as described in Example 3 above, Fischer 344 rats were anesthetized for two hours with halothane and deuterated halothane using an anesthetic concentration of 1 percent (v/v) in air. After 24 hours, the animals were sacrificed and the blood collected from each. SGPT was run on each blood sample as in indication of liver toxicity.

[5] = system: male Fischer 344 rats; experiment: Anesthetic properties on inhalation, halothane vs deuterated analogue (Example 2); assay type: in vivo; conditions: 0.75 volume/volume, 2 hours
Description: (§2) Three groups of 6 male Fischer 344 rats (6 months of age, 200-300 grams) were exposed to room air and 0.75 volume/volume halothane or the deuterated analogue for a period of 2 hours. Following exposure, all animals were maintained for 72 hours. […] The serum inorganic bromide concentration was determined using a specific ion electrode (Orion).

[6] = Serum inorganic bromide concentration 72 hours after inhalation exposure; assay type: in vivo, male Fischer 344 rats; conditions: 0.75 volume/volume, inhaled 2 hours, analysis of variance
Description: as §2

Row | Structure (SMILES) | SGPT level [1] | anesthetic properties, difference between chloroform and deuterated chloroform [2] | damage to the liver [3] | SGPT level, difference between chloroform and deuterated chloroform treated groups ([1]; two hours, 24 hours, nonparametric analysis of variance) | SGPT levels, comparison with the control [4] | SGPT [4] | anesthetic properties, difference between halothane and the deuterated analogue [5] | serum bromide levels, comparison of halothane with deuterated halothane [6] | inorganic bromide in the blood ([3]; literature: Anesthes. 44, 194 (1976))
1 | ClC(Cl)Cl [chloroform] | 56.3 mμ/ml | no difference in the anesthetic properties | in some instances they cause damage to the liver |  |  |  |  |  | 
2 | [2H]C(Cl)(Cl)Cl [deuterated chloroform] | 38.3 mμ/ml | no difference in the anesthetic properties |  | significant at p<0.05 |  |  |  |  | 
3 | [2H]C(Cl)(Br)C(F)(F)F (stereo not drawn) [deuterated halothane, 2-bromo-2-chloro-1,1,1-trifluoroethane-d] |  |  |  |  | not significantly different from the control | 19.6 mμ/ml | No difference in anesthetic properties |  | 
4 | FC(F)(F)C(Cl)Br (stereo not drawn) [halothane, 2-bromo-2-chloro-1,1,1-trifluorethane] |  |  | in some instances they cause damage to the liver |  | significant increase in SGPT levels | 24.0 mμ/ml | No difference in anesthetic properties | significantly higher than those treated with deuterated halothane, p<0.01 | elevation of inorganic bromide in the blood
